Values joined by “and” are separate entries in the source; they are usually repeats but may differ in a detail not shown here. Equal entries are not always repeated.
What was measured:
[1] = tested on: Mycobacterium tuberculosis bacilli (strain H37RV); assay: Agar gel well test of ETH potentiation in Petri dishes; type: cell-based
M. bovis BCG = type: cell-based, M. bovis BCG 1173P2; details: from MIC of ETH alone (6 μM) and MIC of ETH with 25 μM compound
EthR protein [2] = target: T1, EthR protein (Mycobacterium tuberculosis, UniProt P9WMC1); assay: In vitro measurement of the IC50 (EthR/DNA binding, BIAcore); design: species or system M. tuberculosis H37Rv
Procedure: b) In Vitro Measurement of the IC50 of the Compounds of the Invention.
The in vitro measurement of this datum was performed according to the same principle as for the measurement of inhibition of the EthR/DNA binding using the BIAcore technique.
The specific interaction between EthR and the specific 106-bp DNA fragment was measured on a range of six concentrations of the compounds of the invention, this range extending from 0.11 μM to 27 μM. The IC50 values are then extrapolated from the sigmoid curves obtained.

M. tuberculosis H37Rv = assay: Ethionamide-potentiating effect, RIA detection method on Bactec 460 in 12B medium; type: cell-based; details: with 25 μM of compound
EthR protein [3] = target: T1, EthR protein; assay: Inhibition of interaction of EthR with its target DNA sequence (BIAcore); type: binding, M. tuberculosis H37Rv
Procedure: a) Measurement of the Activity of the Compounds on the Inhibition of Interaction of EthR with its Target DNA Sequence
The in vitro measurements of inhibition of binding of the EthR protein to its target DNA sequence were performed on a machine of BIAcore®2000 type (AB, Uppsala, Sweden).
The chips used are CM5 chips sold by the company GE Healthcare. Both the channels of a chip were activated with a solution containing 200 mM of EDC(N-ethyl-N′-(3-[…])carbodiimide) and 50 mM of NHS (N-hydroxysuccinimide). Next, streptavidin (500 ng/μl in a solution containing 10 mM of sodium acetate (pH 3.5) was injected over 12 minutes at a flow rate of 10 μl/minute. The 106-base-pair biotinylated DNA fragment corresponding to the ethA-R intergene region was deposited on one of the two channels of the chip at a rate of 200 ng/ml in order to obtain stable binding of streptavidin corresponding to 50 RU (resonance units). This DNA fragment was obtained by PCR using the chromosomal DNA of M. tuberculosis H37Rv as matrix and O-270: 5′-[…]-3′ (SEQ ID: No. 1) and O-271: 5′-biotin-[…]-3′ (SEQ ID: No. 2). The second channel was functionalized with a 113-base-pair biotinylated DNA fragment (fragment +14 to +127 of the bla gene of E. coli PCR-amplified using the following oligonucleotides: O-343: 5′-[…]-3′ (SEQ ID: No. 3) and O-344: 5′-biotin-[…]-3′ (SEQ ID: No. 4).
Measurement of the binding of the EthR protein to the immobilized DNA was performed at 37° C. in a reference buffer containing 10 mM of Tris-HCl (pH=7.5), 200 mM of NaCl, 0.1 mM of EDTA, 1 mM of DTT and 1% of DMSO at a flow rate of 20 μl/minute. The specific interaction (SI) of EthR with the 106-base-pair double-stranded DNA sequence, expressed in resonance units, corresponds to the difference in signal observed between the two channels.
For each inhibition measurement, the compounds of the invention are dissolved in the reference buffer at a concentration of 3 μM. The compounds of the invention are then incubated in the presence of the protein (540 nM) at 37° C. for 5 minutes, and each solution is then injected onto the two channels of the chip for 3 minutes at a flow rate of 20 μl/minute. The inhibition values are calculated at the end of the injection according to the following equation: […]
in which SIEthR corresponds to the value measured without ligand and SIEthR+ligand corresponds to the value measured in the presence of to ligand.

T1 sequence (P9WMC1 whole entry, looked up): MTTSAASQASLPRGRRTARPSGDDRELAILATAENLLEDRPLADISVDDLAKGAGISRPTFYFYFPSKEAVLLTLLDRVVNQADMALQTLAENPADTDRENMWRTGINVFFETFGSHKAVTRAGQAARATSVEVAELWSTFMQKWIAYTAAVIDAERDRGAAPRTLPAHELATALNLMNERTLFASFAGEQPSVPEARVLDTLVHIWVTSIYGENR

Row | SMILES | inhibition of mycobacterial growth around the well ([1]; 20 nmol of compound alone (hole A2), three weeks 37° C.) | inhibition of mycobacterial growth around the well ([1]; 2 μg or 4 μg of ETH + 20 nmol of compound (holes C1 and C2)) | factor of reduction of the effective dose of ETH ([1]; combination with ETH, test behind the figure not stated) | Potentiation % (M. bovis BCG) [%] | IC50 (EthR protein [2]) [µM] | ETH concentration giving the same growth-inhibiting effect (M. tuberculosis H37Rv) | inhibition at 3 µM (EthR protein [3]; compound 3 μM, EthR 540 nM, 37° C.) [%] | inhibition at 1 µM (EthR protein [3]; footnote c: DNA 20 RU, EthR 200 nM, compound 1 μM) [%]
1 | CC(C)(C)OC(=O)N1CCC(c2nc(-c3cccs3)no2)CC1 [Compound I-3, t-butyl ester of 4-(3-thiophen-2-yl-1,2,4-oxadiazol-5-yl)piperidine-1-carboxylic acid] | does not show any bacterial toxicity | strongly inhibit the mycobacterial growth | about 10 fold |  |  |  |  | 
2 | [N-]=[N+]=NCC(=O)N1CCC(c2nc(-c3cccs3)no2)CC1 [Compound I-1, 2-azido-1-[4-(3-thiophen-2-yl[1,2,4]oxadiazol-5-yl)piperid-1-yl]ethanone] |  |  |  | 2500 | 1.54 | 0.1 μg/ml and 0.6 μM | 33 | 45
